This passage reports cytotoxicity results from ChEMBL document CHEMBL3507680, “University of Dundee, Gates Library screen for HepG2 cell viability”.

The nature of this data set: Human HepG2 cell viability assay in 384 well format. Format: toxicity, cell-based. Further details: dose 125 nL, time 70.5 hour; concentration not given beside the values. To be noted: HepG2 cells, read-out: Inhibition.
For `COc1ccc(NC(=O)N(CCO)Cc2ccsc2)c(OC)c1`, the cytotoxicity at 70.5 h was determined as 0.461%.

For the molecule `CC(C)(C(=O)NCC(=O)NCc1ccccc1)c1ccccc1F`, the cytotoxicity at 70.5 h was 3.35%.

In the case of `CCCS(=O)(=O)N1CCC(Oc2ccc(C#N)cc2)CC1`, the cytotoxicity at 70.5 h was 4.2%.

As for `CC(C)c1nnc2n1CC(CNCc1nc3ccccc3o1)CC2` (stereo not drawn), the cytotoxicity at 70.5 h was determined as 2.4%.

Consider `CC(C)(C)c1n[nH]c(C2CN(C(=O)CCCn3cccn3)CCO2)n1` (stereo not drawn), for which the cytotoxicity at 70.5 h came to 0.387%.

On to `Cc1noc(C)c1CN1CCC(N(C)Cc2noc(C(C)C)n2)C1` (stereo not drawn), for which the cytotoxicity at 70.5 h came to 5.99%.

With `Cc1ncccc1CNCC1CCc2nnc(C(C)C)n2C1` (stereo not drawn), the cytotoxicity at 70.5 h was -7.03%.

On to `O=C(NCCNc1ccccn1)NCC1CCS(=O)(=O)C1` (stereo not drawn), for which the cytotoxicity at 70.5 h stood at 4.42%.

In the case of `Cc1nnc(CN(Cc2cccc(Br)c2)C2CC2)o1`, the cytotoxicity at 70.5 h was -8.25%.

Turning to `O=S1(=O)CCC(c2nc(-c3cccc(Br)c3)no2)C1` (stereo not drawn), the cytotoxicity at 70.5 h was -8.75%.

As for `Cc1cnn(C2CN(Cc3nnc(-c4ccccc4Cl)o3)C2)c1`, the cytotoxicity at 70.5 h was determined as 5.37%.

With `Cc1cc(CS(=O)(=O)N(C)C(C)c2ccc(Cl)cc2)on1` (stereo not drawn), the cytotoxicity at 70.5 h is -11.1%.

For the molecule `COC(=O)NCCC(=O)NC(c1ccc(Cl)cc1)C(F)(F)F` (stereo not drawn), the cytotoxicity at 70.5 h was -8.05%.

Turning to `Cc1cc(CNC(=O)CCN2CCN(c3ccccn3)CC2)c(C)o1`, the cytotoxicity at 70.5 h turned out to be 9.41%.

For `COCCN(c1ccncc1)S(=O)(=O)c1cc(C)cc(F)c1`, the cytotoxicity at 70.5 h is -10.7%.

For `N#CCc1ccc(OCC(=O)NS(=O)(=O)c2ccc(Br)s2)cc1`, the cytotoxicity at 70.5 h stood at 4.36%.

In the case of `O=C(NCCNc1cnccn1)NCC1CCS(=O)(=O)C1` (stereo not drawn), the cytotoxicity at 70.5 h is -7.83%.

With `Cc1ncsc1CNC(=O)CCN1CCN(c2ccccn2)CC1`, the cytotoxicity at 70.5 h was -8.25%.

In the case of `CCNC(=O)CN(Cc1ccoc1)C1CCCCC1`, the cytotoxicity at 70.5 h was -9.92%.

`COCCN(C)S(=O)(=O)c1cc(C)cc(F)c1`: the cytotoxicity at 70.5 h was -5.49%.

Consider `CCN(CCNCc1cccc(C#N)c1)C1CC1`, for which the cytotoxicity at 70.5 h came out at 10.9%.

Turning to `Cc1csc(NC(=O)C2(C)CCCO2)n1` (stereo not drawn), the cytotoxicity at 70.5 h is -7.86%.

Regarding `CC(=O)c1ccc(OCC(=O)NS(=O)(=O)c2ccc(Cl)s2)cc1`, the cytotoxicity at 70.5 h is -10.1%.

Consider `CNC(=O)NC(=O)CNC(CC(F)(F)F)c1ccc(F)cc1` (stereo not drawn), for which the cytotoxicity at 70.5 h is 4.15%.

For `CN(C)C(=O)CNC(CC(F)(F)F)c1ccc(Cl)cc1` (stereo not drawn), the cytotoxicity at 70.5 h came out at 0.0833%.

Regarding `NS(=O)(=O)CCN(CCc1cccc(F)c1)C1CCCC1`, the cytotoxicity at 70.5 h is -0.787%.

For `Cc1cccc(N2CCN(C(=O)c3c(C)nn(C)c3C)CC2)c1C`, the cytotoxicity at 70.5 h is -0.882%.

Take `O=C1CC(N(C(=O)COc2ccc(F)cc2F)C2CC2)C(=O)N1` (stereo not drawn): the cytotoxicity at 70.5 h was -6.63%.

For the molecule `NC(=O)NC(=O)CCSCc1coc(-c2cccc(Cl)c2)n1`, the cytotoxicity at 70.5 h is -17.3%.

For the molecule `O=C1CC(N(C(=O)CCc2cc(F)ccc2F)C2CC2)C(=O)N1` (stereo not drawn), the cytotoxicity at 70.5 h is -7.39%.

With `Cc1ccccc1S(=O)(=O)NC(=O)C1(c2ccccc2)CCC1`, the cytotoxicity at 70.5 h is -9.55%.

Consider `c1ccc(OCCN2CCC(n3cncn3)CC2)cc1`, for which the cytotoxicity at 70.5 h is 25.3%.

As for `Cc1ccc(S(=O)(=O)NC(=O)C2(c3ccccc3)CCC2)c(C)c1`, the cytotoxicity at 70.5 h is -10.7%.

For the molecule `Cc1ccc(CNC(=O)Cn2c(=O)c3cccnc3n2C)cc1F`, the cytotoxicity at 70.5 h was -12.5%.

In the case of `COCCNC(=O)NC1(c2ccccc2F)CC1`, the cytotoxicity at 70.5 h is -5.87%.

Consider `CC1(C)CN=C(N2CCN(CCCN3CCOCC3)CC2)S1`, for which the cytotoxicity at 70.5 h was -8.84%.

On to `COc1cccc(OCC(=O)N(C)c2cccnc2N(C)C)c1`, for which the cytotoxicity at 70.5 h is -8.02%.

Take `Cc1nc(SC2CCN(c3sccc3C#N)C2=O)oc1C` (stereo not drawn): the cytotoxicity at 70.5 h is -1.94%.

`CCOC1CCCN(C(=O)c2ccccc2NCc2cccnc2)C1` (stereo not drawn): the cytotoxicity at 70.5 h was determined as 15.9%.

Regarding `CC1(C)CN=C(N2CCN(CC3CCCCO3)CC2)S1` (stereo not drawn), the cytotoxicity at 70.5 h is 0.00251%.

`CN(Cc1ccco1)C(=O)CN1CCN(C)c2ccccc2C1`: the cytotoxicity at 70.5 h is -3%.

On to `COc1cccc2c1N(S(=O)(=O)c1cc(C(=O)O)cs1)CCC2`, for which the cytotoxicity at 70.5 h was -6.55%.

As for `c1ccc(-c2cnc(CNC3CCc4ncnn4C3)o2)cc1` (stereo not drawn), the cytotoxicity at 70.5 h was found to be 0.0931%.

Turning to `CCc1nnsc1C(=O)N1CCN(CC(O)C(C)(C)C)CC1` (stereo not drawn), the cytotoxicity at 70.5 h is -10.2%.

On to `CC(NC(=O)N1CCC(CC(N)=O)CC1)c1csc2ccccc12` (stereo not drawn), for which the cytotoxicity at 70.5 h is -10.8%.

Turning to `O=C(Nc1nnn[nH]1)c1ccc(-n2cccc2)c(F)c1`, the cytotoxicity at 70.5 h was -9.42%.

`COCc1cc(N(CC(F)F)C2CC2)n2ncnc2n1`: the cytotoxicity at 70.5 h was -5.91%.

For `O=C(O)c1csc(S(=O)(=O)N2CCCc3cc(OC(F)F)ccc32)c1`, the cytotoxicity at 70.5 h is -10.7%.

For the molecule `Cc1ccccc1CNCC(O)c1ccc(OC(C)C)cc1` (stereo not drawn), the cytotoxicity at 70.5 h was -0.135%.

Consider `O=C(CN1CCOc2ccc(Cl)cc21)NCCCn1ccnc1`, for which the cytotoxicity at 70.5 h was -5.4%.

With `O=C(CN1CCOc2ccc(Cl)cc21)NCc1ncc[nH]1`, the cytotoxicity at 70.5 h is -2.35%.

Regarding `CCCNC(=O)C(C)Nc1ccn(Cc2ccccn2)n1` (stereo not drawn), the cytotoxicity at 70.5 h turned out to be 1.09%.

Regarding `O=C(c1ccc2nncn2c1)N1CCSC2(CCCCC2)C1`, the cytotoxicity at 70.5 h was found to be 11.5%.

Consider `CCCN1CCC(Nc2nc(CC)ns2)CC1`, for which the cytotoxicity at 70.5 h is -2.52%.

`CC1(C)CN(C(=O)c2ccc3nncn3c2)CCS1`: the cytotoxicity at 70.5 h was -5.72%.

Turning to `CCN(C)S(=O)(=O)NCC(O)c1cc2ccccc2s1` (stereo not drawn), the cytotoxicity at 70.5 h was -0.185%.

Regarding `COC(=O)c1ccc(Cl)c(CN(C)Cc2ncnn2C)c1`, the cytotoxicity at 70.5 h came to 1.01%.

With `Cc1c(F)cccc1S(=O)(=O)NCC(C)(C)CC(C)O` (stereo not drawn), the cytotoxicity at 70.5 h is -5.55%.

Consider `CN(Cc1cc(Cl)ccc1Cl)Cc1ncnn1C`, for which the cytotoxicity at 70.5 h is -1.99%.

`CC(C)Cc1nc(CN(C)CCOc2ccc(F)cc2)no1`: the cytotoxicity at 70.5 h is -8.43%.

Take `Cc1ccccc1OCCN(C)Cc1noc(CC(C)C)n1`: the cytotoxicity at 70.5 h was found to be 4.63%.

For the molecule `COC(=O)c1cccc(CN(C)Cc2ncnn2C)c1C#N`, the cytotoxicity at 70.5 h turned out to be 28.8%.

Consider `COC(=O)N1CCCC(C(=O)N2CCCCC2)C1` (stereo not drawn), for which the cytotoxicity at 70.5 h is -4.53%.

As for `CC(C)Cc1nc(CN(C)CCOc2ccccc2F)no1`, the cytotoxicity at 70.5 h was determined as 12.5%.

Take `Cc1cc(NC(=O)C(C)Nc2ccn(Cc3ccccn3)n2)on1` (stereo not drawn): the cytotoxicity at 70.5 h is -10.1%.

Regarding `CN(Cc1ccco1)C(=O)CN1CCc2ccccc2C1`, the cytotoxicity at 70.5 h is -7.16%.

With `CNC(=O)C1CCCN(C(=O)C2CCC2)C1` (stereo not drawn), the cytotoxicity at 70.5 h was -11.6%.

On to `CCSc1cncc(N2CCC(NC(=O)C3CCCCC3)CC2)n1`, for which the cytotoxicity at 70.5 h is -13.5%.

With `CCN1CCCCC1C(=O)Nc1cccc(-c2nnc[nH]2)c1` (stereo not drawn), the cytotoxicity at 70.5 h is -0.846%.

As to `CCCN1CCCCC1C(=O)Nc1ccc(-c2nnc[nH]2)cc1` (stereo not drawn), the cytotoxicity at 70.5 h was -4.51%.

Take `O=C(NC1CCN(c2ncccn2)CC1)c1cccc(-n2ccnc2)c1`: the cytotoxicity at 70.5 h is -7.96%.

Regarding `O=S(=O)(CC1CCCO1)Nc1cc(Cl)ccc1-n1cccn1` (stereo not drawn), the cytotoxicity at 70.5 h is 2.79%.

With `O=S(=O)(CC1CCCCO1)Nc1cc(F)ccc1-n1cccn1` (stereo not drawn), the cytotoxicity at 70.5 h is 9.49%.

In the case of `CCCS(=O)(=O)CC(=O)Nc1cc(CC(C)(C)C)n[nH]1`, the cytotoxicity at 70.5 h is -0.508%.

On to `Cn1ccnc(Sc2ccc(O)cc2)c1=O`, for which the cytotoxicity at 70.5 h is -14.3%.

Turning to `Cn1ccnc(Sc2cccc(C#N)c2)c1=O`, the cytotoxicity at 70.5 h was -4.29%.

Regarding `Cc1noc(C)c1C[S+]([O-])Cc1cn2cccc(C)c2n1` (stereo not drawn), the cytotoxicity at 70.5 h is -4.48%.

As to `Cc1ccc(C)c(Sc2nccn(C)c2=O)c1`, the cytotoxicity at 70.5 h was -10.6%.

In the case of `CCCc1nc(C[S+]([O-])Cc2cn3cccc(C)c3n2)no1` (stereo not drawn), the cytotoxicity at 70.5 h was -3.84%.

Turning to `CC(=O)c1ccc(CNC(=O)c2cc(C#N)cn2C)nc1C`, the cytotoxicity at 70.5 h is -4.66%.

For the molecule `O=S(=O)(CC1CCCCO1)Nc1c(F)cccc1-n1cccn1` (stereo not drawn), the cytotoxicity at 70.5 h was -3.07%.

`O=C(NC1CCN(c2ncccc2F)C1)c1cccc(-n2ccnc2)c1` (stereo not drawn): the cytotoxicity at 70.5 h was -9.37%.

With `Cc1csc(CCCNC(C)CC(=O)Nc2ccc(F)cc2)n1` (stereo not drawn), the cytotoxicity at 70.5 h is 5.43%.

Consider `C=C(C)CNC(C)c1ccc(S(C)(=O)=O)c(F)c1` (stereo not drawn), for which the cytotoxicity at 70.5 h is -9.09%.

Consider `Cc1ccn(-c2ccc(NCc3ccnc(N4CCCCC4)c3)nn2)n1`, for which the cytotoxicity at 70.5 h is -10.5%.

As for `O=C(COc1ccccc1C(F)(F)F)NCCNC(=O)c1ccccc1`, the cytotoxicity at 70.5 h is 12.9%.

In the case of `CC(C)c1noc(CS(=O)(=O)CC(=O)NCc2cccs2)n1`, the cytotoxicity at 70.5 h was -9.72%.

As to `COc1ccc(CC(=O)NC(CC(=O)O)c2ccc(F)cc2)cc1OC` (stereo not drawn), the cytotoxicity at 70.5 h is -5.71%.

As to `COc1ccccc1CC(=O)NC(CC(=O)O)c1ccc(F)cc1` (stereo not drawn), the cytotoxicity at 70.5 h was -8.41%.

For the molecule `CC(Sc1nnc(C2CC2)n1CC(N)=O)c1ccc(F)c(Cl)c1` (stereo not drawn), the cytotoxicity at 70.5 h was -6.61%.

As for `CC(Sc1nnc(C2CC2)n1CC(N)=O)c1ccc(Cl)cc1` (stereo not drawn), the cytotoxicity at 70.5 h is -8.5%.

For `NC(=O)C(NC(=O)c1cc(Br)c[nH]1)c1ccccc1` (stereo not drawn), the cytotoxicity at 70.5 h was determined as 10.8%.

With `CC(C)CC(C#N)NC(=O)c1ccc(Oc2cccnc2)cc1` (stereo not drawn), the cytotoxicity at 70.5 h is -5.49%.

For `Cc1ccn(-c2ccc(NCc3ccccc3F)nn2)n1`, the cytotoxicity at 70.5 h is 13.7%.

On to `CC(C)Sc1ccc(C(C)NC(=O)Cn2cccnc2=O)cc1` (stereo not drawn), for which the cytotoxicity at 70.5 h is -15.1%.

For `O=c1[nH]c(N2CCN(C3CC3)CC2)nc2c1cnn2-c1ccccc1`, the cytotoxicity at 70.5 h was -6.97%.

In the case of `Cc1ccc(CNC(=O)c2oc3ccccc3c2CN(C)C)n1C`, the cytotoxicity at 70.5 h is -6.83%.

Take `N#Cc1ccc(F)c(CNC(=O)NCCC(=O)NC2CCCC2)c1`: the cytotoxicity at 70.5 h was -3.12%.

With `CC(C)(C)C(C#N)NC(=O)c1ccc(Oc2cccnc2)cc1` (stereo not drawn), the cytotoxicity at 70.5 h is -8.31%.

Consider `Cc1nc(C2CCCN(C(=O)CCCOc3cccc(F)c3)C2)no1` (stereo not drawn), for which the cytotoxicity at 70.5 h is -16.6%.

In the case of `O=C(NC1CCN(CC2CC2)C1)c1ccc(N2CCC(O)CC2)cc1` (stereo not drawn), the cytotoxicity at 70.5 h was -7.24%.

On to `CNc1nc(CNC(=O)Nc2ccc(OC(C)C)cc2F)cs1`, for which the cytotoxicity at 70.5 h is -5.89%.

Regarding `CC(NCc1c(C(C)C)nn(C)c1N(C)C)C(=O)NC1CCCC1` (stereo not drawn), the cytotoxicity at 70.5 h was -6.36%.
